The supplement of paper PMC9663587

Legend:
[1] = compound: CC(=O)c1c(C)c2cnc(Nc3ccc(N4CCNCC4)cn3)nc2n(C2CCCC2)c1=O; test: increase in dead-cell fraction, 72 h; higher = more death;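 note: breast cancer cell lines in 384-well plates, stained with Hoechst plus LIVE/DEAD far red dye and imaged, cells above an LDR intensity threshold counted dead, Hoechst-negative corpses included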
[2] = compound: CCN1CCN(Cc2ccc(Nc3ncc(F)c(-c4cc(F)c5nc(C)n(C(C)C)c5c4)n3)nc2)CC1; test: as above
LEE011/Ribociclib [3] = compound: T1, CN(C)C(=O)c1cc2cnc(Nc3ccc(N4CCNCC4)cn3)nc2n1C1CCCC1 [LEE011/Ribociclib]; test: as above
Flavopiridol [4] = compound: T2, CN1CC[C@H](c2c(O)cc(O)c3c(=O)cc(-c4ccccc4Cl)oc23)[C@H](O)C1 [Flavopiridol]; test: as above
BSJ-03-123 = compound: CC(=O)c1c(C)c2cnc(Nc3ccc(N4CCN(CCOCCOCCOCCNC(=O)COc5cccc6c5C(=O)N(C5CCC(=O)NC5=O)C6=O)CC4)cn3)nc2n(C2CCCC2)c1=O [BSJ-03-123]; test: GR value, 72 h; higher = faster growth (1 = untreated, <0 = killing);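 note: breast cancer and non-malignant breast epithelial lines, nine half-log doses, viable cells counted by Hoechst and LIVE/DEAD dye imaging versus time-zero plates and DMSO controls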
[5] = compound: CC(=O)c1c(C)c2cnc(Nc3ccc(N4CCNCC4)cn3)nc2n(C2CCCC2)c1=O; test: as above
[6] = compound: CCN1CCN(Cc2ccc(Nc3ncc(F)c(-c4cc(F)c5nc(C)n(C(C)C)c5c4)n3)nc2)CC1; test: as above
Neratinib/HKI272 = compound: CCOc1cc2ncc(C#N)c(Nc3ccc(OCc4ccccn4)c(Cl)c3)c2cc1NC(=O)/C=C/CN(C)C [Neratinib/HKI272]; test: as above
[7] = compound: CCc1cnn2c(NCc3ccc[n+]([O-])c3)cc(N3CCCC[C@H]3CCO)nc12; test: as above
LEE011/Ribociclib [8] = compound: T1, LEE011/Ribociclib; test: as above
THZ1 = compound: CN(C)C/C=C/C(=O)Nc1ccc(C(=O)Nc2cccc(Nc3ncc(Cl)c(-c4c[nH]c5ccccc45)n3)c2)cc1 [THZ1]; test: as above
Flavopiridol [9] = compound: T2, Flavopiridol; test: as above

MDAMB468
increase in dead-cell fraction ([1]; 0.0003162 µM): 0.0165 | increase in dead-cell fraction ([1]; 0.001 µM): 0.0114 | increase in dead-cell fraction ([1]; 0.003162 µM): 0.0024 | increase in dead-cell fraction ([1]; 0.01 µM): -0.0003 | increase in dead-cell fraction ([1]; 0.03162 µM): 0.0031 | increase in dead-cell fraction ([1]; 0.1 µM): -0.006 | increase in dead-cell fraction ([1]; 0.3162 µM): -0.0071 | increase in dead-cell fraction ([1]; 1 µM): -0.001 | increase in dead-cell fraction ([1]; 3.162 µM): -0.0077 | increase in dead-cell fraction ([2]; 0.001 µM): 0.0107 | increase in dead-cell fraction ([2]; 0.003162 µM): 0.0019 | increase in dead-cell fraction ([2]; 0.01 µM): -0.0006 | increase in dead-cell fraction ([2]; 0.03162 µM): -0.0012 | increase in dead-cell fraction ([2]; 0.1 µM): -0.0016 | increase in dead-cell fraction ([2]; 0.3162 µM): -0.0021 | increase in dead-cell fraction ([2]; 1 µM): 0.019 | increase in dead-cell fraction ([2]; 3.162 µM): 0.101 | increase in dead-cell fraction ([2]; 10 µM): 0.545 | increase in dead-cell fraction (LEE011/Ribociclib [3]; 0.001 µM): -0.0034 | increase in dead-cell fraction (LEE011/Ribociclib [3]; 0.003162 µM): -0.0042 | increase in dead-cell fraction (LEE011/Ribociclib [3]; 0.01 µM): 0.0065 | increase in dead-cell fraction (LEE011/Ribociclib [3]; 0.03162 µM): -0.0098 | increase in dead-cell fraction (LEE011/Ribociclib [3]; 0.1 µM): -0.0059 | increase in dead-cell fraction (LEE011/Ribociclib [3]; 0.3162 µM): -0.0074 | increase in dead-cell fraction (LEE011/Ribociclib [3]; 1 µM): -0.0071 | increase in dead-cell fraction (LEE011/Ribociclib [3]; 3.162 µM): -0.01 | increase in dead-cell fraction (LEE011/Ribociclib [3]; 10 µM): -0.0011 | increase in dead-cell fraction (Flavopiridol [4]; 0.0001 µM): -0.0044 | increase in dead-cell fraction (Flavopiridol [4]; 0.0003162 µM): 0.0084 | increase in dead-cell fraction (Flavopiridol [4]; 0.001 µM): -0.004 | increase in dead-cell fraction (Flavopiridol [4]; 0.003162 µM): -0.0097 | increase in dead-cell fraction (Flavopiridol [4]; 0.01 µM): 0.0094 | increase in dead-cell fraction (Flavopiridol [4]; 0.03162 µM): 0.002 | increase in dead-cell fraction (Flavopiridol [4]; 0.1 µM): 0.0269 | increase in dead-cell fraction (Flavopiridol [4]; 0.3162 µM): 0.0941 | increase in dead-cell fraction (Flavopiridol [4]; 1 µM): 0.274 | GR value (BSJ-03-123; 0.001 µM): 1 GR | GR value (BSJ-03-123; 0.003162 µM): 0.923 GR | GR value (BSJ-03-123; 0.01 µM): 0.902 GR | GR value (BSJ-03-123; 0.03162 µM): 0.806 GR | GR value (BSJ-03-123; 0.1 µM): 0.91 GR | GR value (BSJ-03-123; 0.3162 µM): 0.771 GR | GR value (BSJ-03-123; 1 µM): 0.636 GR | GR value (BSJ-03-123; 3.162 µM): 0.476 GR | GR value (BSJ-03-123; 10 µM): -0.0278 GR | GR value ([5]; 0.0003162 µM): 0.963 GR | GR value ([5]; 0.001 µM): 1.02 GR | GR value ([5]; 0.003162 µM): 1.02 GR | GR value ([5]; 0.01 µM): 1.05 GR | GR value ([5]; 0.03162 µM): 1.02 GR | GR value ([5]; 0.1 µM): 1.01 GR | GR value ([5]; 0.3162 µM): 1.06 GR | GR value ([5]; 1 µM): 1.05 GR | GR value ([5]; 3.162 µM): 1.05 GR | GR value ([6]; 0.001 µM): 0.94 GR | GR value ([6]; 0.003162 µM): 0.966 GR | GR value ([6]; 0.01 µM): 0.979 GR | GR value ([6]; 0.03162 µM): 1.04 GR | GR value ([6]; 0.1 µM): 1.06 GR | GR value ([6]; 0.3162 µM): 1.01 GR | GR value ([6]; 1 µM): 0.811 GR | GR value ([6]; 3.162 µM): 0.321 GR | GR value ([6]; 10 µM): -0.34 GR | GR value (Neratinib/HKI272; 0.0003162 µM): 0.947 GR | GR value (Neratinib/HKI272; 0.001 µM): 0.97 GR | GR value (Neratinib/HKI272; 0.003162 µM): 0.983 GR | GR value (Neratinib/HKI272; 0.01 µM): 0.969 GR | GR value (Neratinib/HKI272; 0.03162 µM): 0.838 GR | GR value (Neratinib/HKI272; 0.1 µM): 0.56 GR | GR value (Neratinib/HKI272; 0.3162 µM): 0.257 GR | GR value (Neratinib/HKI272; 1 µM): -0.0811 GR | GR value (Neratinib/HKI272; 3.162 µM): -0.395 GR | GR value ([7]; 0.0001 µM): 0.988 GR | GR value ([7]; 0.0003162 µM): 1.01 GR | GR value ([7]; 0.001 µM): 0.985 GR | GR value ([7]; 0.003162 µM): 1.03 GR | GR value ([7]; 0.01 µM): 0.863 GR | GR value ([7]; 0.03162 µM): -0.106 GR | GR value ([7]; 0.1 µM): -0.255 GR | GR value ([7]; 0.3162 µM): -0.339 GR | GR value ([7]; 1 µM): -0.412 GR | GR value (LEE011/Ribociclib [8]; 0.001 µM): 0.985 GR | GR value (LEE011/Ribociclib [8]; 0.003162 µM): 1.04 GR | GR value (LEE011/Ribociclib [8]; 0.01 µM): 0.951 GR | GR value (LEE011/Ribociclib [8]; 0.03162 µM): 1.01 GR | GR value (LEE011/Ribociclib [8]; 0.1 µM): 1.05 GR | GR value (LEE011/Ribociclib [8]; 0.3162 µM): 0.965 GR | GR value (LEE011/Ribociclib [8]; 1 µM): 0.935 GR | GR value (LEE011/Ribociclib [8]; 3.162 µM): 1 GR | GR value (LEE011/Ribociclib [8]; 10 µM): 1.02 GR | GR value (THZ1; 0.0001 µM): 1 GR | GR value (THZ1; 0.0003162 µM): 1.07 GR | GR value (THZ1; 0.001 µM): 1 GR | GR value (THZ1; 0.003162 µM): 0.92 GR | GR value (THZ1; 0.01 µM): 0.76 GR | GR value (THZ1; 0.03162 µM): 0.375 GR | GR value (THZ1; 0.1 µM): -0.131 GR | GR value (THZ1; 0.3162 µM): -0.226 GR | GR value (THZ1; 1 µM): -0.435 GR | GR value (Flavopiridol [9]; 0.0001 µM): 0.989 GR | GR value (Flavopiridol [9]; 0.0003162 µM): 0.962 GR | GR value (Flavopiridol [9]; 0.001 µM): 0.929 GR | GR value (Flavopiridol [9]; 0.003162 µM): 0.953 GR | GR value (Flavopiridol [9]; 0.01 µM): 0.931 GR | GR value (Flavopiridol [9]; 0.03162 µM): 0.898 GR | GR value (Flavopiridol [9]; 0.1 µM): 0.662 GR | GR value (Flavopiridol [9]; 0.3162 µM): 0.213 GR | GR value (Flavopiridol [9]; 1 µM): -0.426 GR
